# Earlier results as cited in patent US7709454B2, “Methods and compositions for inhibiting tumorigenesis” (New York University, priority 1997, dated 2010).
# Assays:
# [1] = cell type not given; cited from earlier work
# [2] = test system: MMTV-v-H-RAS transgenic mice/Mammary, salivary Carcinoma; settings: cited from earlier work
# [3] = test system: MMTV-N-RAS^N transgenic Mice/lymphoid and mammary tumors; settings: 40 mg/kg/d; cited from earlier work
# [4] = test system: MMTV-TGFa/neu transgenic Mice/mammary tumors; settings: 40 mg/kg/d; cited from earlier work
structure (smiles),measurement,setting,value
"CC[C@H](C)[C@@H](CO[C@@H](Cc1ccccc1)C(=O)N[C@@H](CCS(C)(=O)=O)C(=O)OC(C)C)NC[C@@H](N)CS [L-744,832]",IC50,[1],1 to 10 µM
same,tumor mean growth rate in the presence of the Ftase inhibitor,[2]; 10-40 mg/kg/d,−5.4 vs 16.7 mm3/day
same,tumor response,[2]; mammary and salivary carcinomas in MMTV-v-Ha-Ras mice,induced regression
same,tumor mean growth rate in the presence of the Ftase inhibitor,[3],−0.7 vs 28.3 mm3/day
same,tumor mean growth rate in the presence of the Ftase inhibitor,[4],−7.4 vs 19 mm3/day
